Molecular target: T1, human CYP2D6 (Homo sapiens, UniProt P10635)
T1 construct: from tissue; host or cells: humanized liver of chimeric mice (transplanted human hepatic cells), in vivo
Test: Debrisoquine metabolism to 4-OHDB in chimeric mice
Assay type: in vivo
Details: debrisoquine 2.0 mg/kg orally, chimera group vs sham-operated group
Description: Debrisoquine, which serves as a common phenotyping agent for human CYP2D6, is metabolized to 4-hydroxydebrisoquine (4-OHDB) in humans but is negligible in mice.
Debrisoquine was orally administered at a dose of 2.0 mg/kg. The data was obtained 8 hours after the oral administration and is indicated by the mean±SD.

T1 sequence (P10635 whole entry): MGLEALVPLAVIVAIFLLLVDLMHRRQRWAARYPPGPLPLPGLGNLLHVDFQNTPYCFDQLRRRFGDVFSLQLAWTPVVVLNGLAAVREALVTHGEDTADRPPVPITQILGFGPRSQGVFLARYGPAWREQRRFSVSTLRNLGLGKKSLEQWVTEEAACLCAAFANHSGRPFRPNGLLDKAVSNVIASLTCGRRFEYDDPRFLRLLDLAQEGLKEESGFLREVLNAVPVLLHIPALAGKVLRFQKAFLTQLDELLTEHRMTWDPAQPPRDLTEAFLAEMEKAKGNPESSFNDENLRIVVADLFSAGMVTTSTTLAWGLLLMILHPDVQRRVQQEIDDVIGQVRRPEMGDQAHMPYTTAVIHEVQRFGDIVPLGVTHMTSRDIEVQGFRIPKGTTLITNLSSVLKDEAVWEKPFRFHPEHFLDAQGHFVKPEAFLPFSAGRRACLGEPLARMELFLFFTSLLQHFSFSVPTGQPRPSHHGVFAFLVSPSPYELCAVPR

N=C(N)N1CCc2ccccc2C1 [debrisoquine, Debrisoquine]
plasma concentration of 4-OHDB following oral administration of debrisoquine: higher in the chimera group than in the sham-operated group

From US9532554B2, “Method for inducing hepatocellular variation, and production method for chimeric non-human animal having humanized liver” (PUBLIC UNIVERSITY CORPORATION YOKOHAMA CITY UNIVERSITY, priority 2011, dated 2017)
